From ChEMBL document CHEMBL5528066, “Discovery of Novel N-(Anthracen-9-ylmethyl) Benzamide Derivatives as ZNF207 Inhibitors Promising in Treating Glioma” (J Med Chem, 2024)
pIC50: −log10 of the molar value. Calls of active or inactive are those of the source. The rule behind the calls is not given here.

Legend:
LN-229 [1] = test: Inhibition of colony formation in human LN-229 cells assessed as reduction in number of cell clones treated on day 1 and measured after 14 days by crystal violet staining based microscopic analysis; format: functional; settings: dose 0.625-5 µM, time 14.0 day
Hs 683 [2] = test: Inhibition of sphere formation in human Hs 683 cells at 8 uM measured after 10 days in well containing 10 cells by microscopic analysis; format: functional, cell-based; settings: time 10.0 day
LN-229 [3] = test: Inhibition of sphere formation in human LN-229 cells at 4 uM measured after 10 days in well containing 1 cells by microscopic analysis; format: functional, cell-based; settings: time 10.0 day
H4 [4] = test: Inhibition of sphere formation in human H4 cells at 1 uM measured after 10 days in well containing 1 cells by microscopic analysis; format: functional, cell-based; settings: time 10.0 day
U-251 [5] = test: Inhibition of sphere formation in human U-251MG cells at 1 uM measured after 10 days in well containing 1000 cells by microscopic analysis; format: functional, cell-based; settings: time 10.0 day
H4 [6] = test: Inhibition of sphere formation in human H4 cells at 4 uM measured after 10 days in well containing 10000 cells by microscopic analysis; format: functional, cell-based; settings: time 10.0 day
[7] = Toxicity in female C57BL/6 mouse assessed as change in cellular structure of lung at 45 mg/kg, po administered once a day for 2 weeks by H and E staining based analysis; format: organism-based; settings: in vivo, 336 h
[8] = Drug concentration in female Sprague-Dawley rat brain at 45 mg/kg, po measured after 8 hrs by LC-MS/MS analysis; format: ADME, organism-based; settings: read-out: Ct
[9] = Drug concentration in male Sprague-Dawley rat liver at 45 mg/kg, po measured after 8 hrs by LC-MS/MS analysis; format: ADME, organism-based; settings: read-out: Ct
H4 [10] = test: Inhibition of sphere formation in human H4 cells at 1 uM measured after 10 days in well containing 10000 cells by microscopic analysis; format: functional, cell-based; settings: time 10.0 day
[11] = Toxicity in male C57BL/6 mouse assessed as change in cellular structure of heart at 45 mg/kg, po administered once a day for 2 weeks by H and E staining based analysis; format: organism-based; settings: in vivo, 336 h
[12] = Drug concentration in male Sprague-Dawley rat kidney at 45 mg/kg, po measured after 8 hrs by LC-MS/MS analysis; format: ADME, organism-based; settings: read-out: Ct
U-251 [13] = test: Inhibition of sphere formation in human U-251MG cells at 2 uM measured after 10 days in well containing 1000 cells by microscopic analysis; format: functional, cell-based; settings: time 10.0 day
MKN-45 = test: Antiproliferative activity against human MKN-45 cells assessed as inhibition of cell growth incubated for 72 hrs by CCK-8 assay; format: functional, cell-based; settings: MKN-45, 72 h
LN-229 [14] = test: Inhibition of sphere formation in human LN-229 cells assessed as fold reduction in sphere initiating frequency at 4 uM incubated for 10 days by microscopic analysis relative to control; format: functional; settings: time 10 day
Hs 683 [15] = test: Inhibition of sphere formation in human Hs 683 cells at 2 uM measured after 10 days in well containing 1 cells by microscopic analysis; format: functional, cell-based; settings: time 10.0 day
LN-229 [16] = test: Inhibition of sphere formation in human LN-229 cells at 1 uM measured after 10 days in well containing 1000 cells by microscopic analysis; format: functional, cell-based; settings: time 10.0 day
[17] = Toxicity in female C57BL/6 mouse assessed as change in cellular structure of intestine at 45 mg/kg, po administered once a day for 2 weeks by H and E staining based analysis; format: organism-based; settings: in vivo, 336 h
MDR1 [18] = test: Apparent permeability across basolateral to apical side in MDCKII-MDR1 cells at 1 uM incubated for 2 hrs by LC-MS/MS analysis; format: ADME, cell-based, Canis lupus familiaris; settings: dog, MDCK-MDR1
Hs 683 [19] = test: Inhibition of sphere formation in human Hs 683 cells at 2 uM measured after 10 days in well containing 10000 cells by microscopic analysis; format: functional, cell-based; settings: time 10.0 day
H4 [20] = test: Inhibition of sphere formation in human H4 cells at 2 uM measured after 10 days in well containing 100 cells by microscopic analysis; format: functional, cell-based; settings: time 10.0 day
[21] = Toxicity in male C57BL/6 mouse assessed as change in cellular structure of liver at 45 mg/kg, po administered once a day for 2 weeks by H and E staining based analysis; format: organism-based; settings: in vivo, 336 h
[22] = Drug concentration in male Sprague-Dawley rat brain at 45 mg/kg, po measured after 8 hrs by LC-MS/MS analysis; format: ADME, organism-based; settings: read-out: Ct
H4 [23] = test: Inhibition of sphere formation in human H4 cells assessed as fold reduction in sphere initiating frequency at 8 uM incubated for 10 days by microscopic analysis relative to control; format: functional; settings: time 10 day
H4 [24] = test: Inhibition of sphere formation in human H4 cells at 1 uM measured after 10 days in well containing 10 cells by microscopic analysis; format: functional, cell-based; settings: time 10.0 day
LN-229 [25] = test: Inhibition of sphere formation in human LN-229 cells at 1 uM measured after 10 days in well containing 10000 cells by microscopic analysis; format: functional, cell-based; settings: time 10.0 day
H4 [26] = test: Inhibition of sphere formation in human H4 cells assessed as fold reduction in sphere initiating frequency at 4 uM incubated for 10 days by microscopic analysis relative to control; format: functional; settings: time 10 day
U-251 [27] = test: Inhibition of sphere formation in human U-251MG cells at 4 uM measured after 10 days in well containing 1 cells by microscopic analysis; format: functional, cell-based; settings: time 10.0 day
Hs 683 [28] = test: Inhibition of sphere formation in human Hs 683 cells at 1 uM measured after 10 days in well containing 1 cells by microscopic analysis; format: functional, cell-based; settings: time 10.0 day
LN-229 [29] = test: Inhibition of sphere formation in human LN-229 cells incubated for 168 hrs by microscopic analysis; format: functional, cell-based; settings: LN-229, 168 h
U-251 [30] = test: Inhibition of sphere formation in human U-251MG cells at 4 uM measured after 10 days in well containing 10000 cells by microscopic analysis; format: functional, cell-based; settings: time 10.0 day
[31] = Drug concentration in female Sprague-Dawley rat stomach at 45 mg/kg, po measured after 8 hrs by LC-MS/MS analysis; format: ADME, organism-based; settings: read-out: Ct
LN-229 [32] = test: Inhibition of sphere formation in human LN-229 cells at 8 uM measured after 10 days in well containing 10000 cells by microscopic analysis; format: functional, cell-based; settings: time 10.0 day
Hs 683 [33] = test: Inhibition of sphere formation in human Hs 683 cells at 8 uM measured after 10 days in well containing 1 cells by microscopic analysis; format: functional, cell-based; settings: time 10.0 day
U-251 [34] = test: Inhibition of colony formation in human U-251MG cells assessed as reduction in colony area at 2.5 uM treated on day 1 and measured after 14 days by crystal violet staining based microscopic analysis relative to control; format: functional; settings: U-251, 336 h, time 14 day
AGS = test: Antiproliferative activity against human AGS cells assessed as inhibition of cell growth incubated for 72 hrs by CCK-8 assay; format: functional, cell-based
[35] = Toxicity in male C57BL/6 mouse assessed as change in cellular structure of spleen at 45 mg/kg, po administered once a day for 2 weeks by H and E staining based analysis; format: organism-based; settings: in vivo, 336 h
MDR1 [36] = test: Apparent permeability across basolateral to apical side in MDCKII-MDR1 cells assessed as drug recovery at 1 uM incubated for 2 hrs by LC-MS/MS analysis; format: ADME, cell-based, Canis lupus familiaris; settings: dog, MDCK-MDR1, read-out: Drug recovery
[37] = Drug concentration in female Sprague-Dawley rat liver at 45 mg/kg, po measured after 8 hrs by LC-MS/MS analysis; format: ADME, organism-based; settings: read-out: Ct
Hs 683 [38] = test: Inhibition of sphere formation in human Hs 683 cells assessed as fold reduction in sphere initiating frequency at 8 uM incubated for 10 days by microscopic analysis relative to control; format: functional; settings: time 10 day

concentration at 8 h [8]: 56.1 ng/g | concentration at 8 h [9]: 779 ng/g | concentration at 8 h [12]: 85.1 ng/g | pIC50 (MKN-45): 5.42 | Papp B→A at 2 h, 1 µM (MDR1 [18]): 4.09 ×10⁻⁶ cm/s | concentration at 8 h [22]: 9.2 ng/g | pIC50 (LN-229 [29]): 5.91 | concentration at 8 h [31]: 4370 ng/g | pIC50 (AGS): 5.03 | recovery at 2 h, 1 µM (MDR1 [36]): 101% | concentration at 8 h [37]: 1400 ng/g
SMILES: N#CC1(C(=O)NCCC2CCN(Cc3ccccc3)CC2)CC2(Br)c3ccccc3C1c1ccccc12 (racemic)
inhibition (LN-229 [1]): Dose-Dependent Effect | inhibition (Hs 683 [2]): Active | inhibition (LN-229 [3]): Active | inhibition (H4 [4]): Active | inhibition (U-251 [5]): inactive | inhibition (H4 [6]): inactive | Activity [7]: Non-Toxic | inhibition (H4 [10]): inactive | Activity [11]: Non-Toxic | inhibition (U-251 [13]): inactive | fold change (FC) (LN-229 [14]): 36.42 | inhibition (Hs 683 [15]): Active | inhibition (LN-229 [16]): inactive | Activity [17]: Non-Toxic | inhibition (Hs 683 [19]): inactive | inhibition (H4 [20]): Active | Activity [21]: Non-Toxic | fold change (FC) (H4 [23]): 51.75 | inhibition (H4 [24]): Active | inhibition (LN-229 [25]): inactive | fold change (FC) (H4 [26]): 32.7 | inhibition (U-251 [27]): Active | inhibition (Hs 683 [28]): Active | inhibition (U-251 [30]): inactive | inhibition (LN-229 [32]): inactive | inhibition (Hs 683 [33]): Active | inhibition at 2.5 µM (U-251 [34]): 100% | Activity [35]: Non-Toxic | fold change (FC) (Hs 683 [38]): 104.96
